# Assay results as given in paper PMC5021374, “An Arginine Finger Regulates the Sequential Action of Asymmetrical Hexameric ATPase in the Double-Stranded DNA Translocation Motor” (Molecular and Cellular Biology, 2016).
# What was measured:
# [1] = target: T1, gp16 ATPase (ϕ29 motor ATPase gp16) (Bacillus phage phi29, UniProt P11014); test: fluorescent phosphate binding protein assay of ATP hydrolysis; format: biochemical; conditions: DNA-dependent ATPase; tag in this assay not stated
# T1 construct: gene 16; full-length gp16 with tags: SUMO-gp16 (Trp fluorescence), His-gp16 (trypsin probing), eGFP-gp16 (EMSA; N-terminal eGFP); homohexamer, monomer/dimer mixture in solution
# T1 sequence (P11014 1-332): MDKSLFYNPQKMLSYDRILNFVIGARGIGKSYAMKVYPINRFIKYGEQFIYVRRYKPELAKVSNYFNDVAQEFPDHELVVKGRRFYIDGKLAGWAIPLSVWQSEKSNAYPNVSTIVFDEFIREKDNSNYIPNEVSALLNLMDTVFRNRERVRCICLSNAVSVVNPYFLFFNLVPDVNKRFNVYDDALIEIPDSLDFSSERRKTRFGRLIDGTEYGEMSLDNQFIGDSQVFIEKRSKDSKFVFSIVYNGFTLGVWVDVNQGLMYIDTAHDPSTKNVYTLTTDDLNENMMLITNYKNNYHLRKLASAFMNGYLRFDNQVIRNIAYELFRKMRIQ
# [2] = target: T1, gp16 ATPase (ϕ29 motor ATPase gp16); test: intrinsic tryptophan fluorescence (SUMO-gp16); also trypsin probing (His-gp16); format: binding; conditions: 2 mM Tris pH 8.0, 0.005% Tween 20, 1.5% PEG 8000, 0.5% acetone; excitation 280 nm
# [3] = target: T1, gp16 ATPase (ϕ29 motor ATPase gp16); test: EMSA with 33-bp Cy5-dsDNA (nucleotide-dependent DNA binding; indirect); conditions: nonhydrolysable ATP analog; 33-bp Cy5-dsDNA present; ambient temperature, 20 min
Compound,fluorescent phosphate binding protein assay of ATP hydrolysis [1],intrinsic tryptophan fluorescence (SUMO-gp16); also trypsin probing (His-gp16) [2],EMSA with 33-bp Cy5-dsDNA (nucleotide-dependent DNA binding; indirect) [3]
Nc1ncnc2c1ncn2[C@@H]1O[C@H](COP(=O)(O)OP(=O)(O)OP(=O)(O)O)[C@@H](O)[C@H]1O [ATP],a phosphate binding protein conjugated to a fluorescent probe ... was used to assay ATP hydrolysis,both assays indicated a conformational change in the gp16-ATP complex,
Nc1ncnc2c1ncn2[C@@H]1O[C@H](COP(=O)(O)OP(=O)(O)OP(O)(O)=S)[C@@H](O)[C@H]1O [γ-S-ATP],,,Stronger binding of gp16 to dsDNA was observed when gp16 was incubated with γ-S-ATP
